Source: patent US9150574B2, “Enzyme inhibitor compounds” (Proximagen Limited, priority 2011, dated 2015)
Where a name gives a salt, the structure may show the parent alone.

Target: T1, purified recombinantly expressed human SSAO (Homo sapiens, UniProt Q16853)
T1 construct: made in house
T1 sequence (Q16853 29-763 limits assumed): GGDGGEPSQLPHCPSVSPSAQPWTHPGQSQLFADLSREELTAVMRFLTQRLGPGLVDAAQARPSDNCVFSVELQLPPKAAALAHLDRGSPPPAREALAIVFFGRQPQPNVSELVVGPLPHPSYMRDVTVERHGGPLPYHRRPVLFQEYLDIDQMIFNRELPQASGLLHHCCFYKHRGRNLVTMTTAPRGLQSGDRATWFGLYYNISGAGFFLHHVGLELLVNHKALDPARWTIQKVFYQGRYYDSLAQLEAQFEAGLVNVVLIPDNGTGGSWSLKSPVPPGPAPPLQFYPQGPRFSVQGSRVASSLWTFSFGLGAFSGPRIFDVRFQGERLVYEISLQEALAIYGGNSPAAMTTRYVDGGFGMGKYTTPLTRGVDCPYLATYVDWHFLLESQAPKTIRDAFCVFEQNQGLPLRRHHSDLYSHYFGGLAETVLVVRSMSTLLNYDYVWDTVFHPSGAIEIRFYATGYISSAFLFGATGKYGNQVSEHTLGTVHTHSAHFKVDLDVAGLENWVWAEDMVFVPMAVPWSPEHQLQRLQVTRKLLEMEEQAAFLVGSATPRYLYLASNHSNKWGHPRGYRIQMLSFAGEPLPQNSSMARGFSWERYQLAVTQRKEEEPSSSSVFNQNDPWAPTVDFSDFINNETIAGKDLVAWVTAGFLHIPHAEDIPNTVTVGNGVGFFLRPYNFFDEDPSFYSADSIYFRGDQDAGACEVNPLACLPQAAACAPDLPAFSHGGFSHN
Test: SSAO enzyme inhibition assay (benzylamine substrate; hydrogen peroxide/HRP-coupled or 14C aldehyde detection)
Assay type: biochemical
Settings: human recombinant SSAO, RT, benzylamine as substrate; read-out: SSAO inhibitory activity IC50
Method: All primary assays were performed at RT. with purified recombinantly expressed human SSAO. Enzyme was prepared essentially as described in Ohman et al. (Protein Expression and Purification 46 (2006) 321 331). In addition, secondary- and selectivity assays were performed using SSAO prepared from various tissues or purified rat recombinant SSAO. The enzyme activity was assayed with benzylamine as substrate by measuring either benzaldehyde production, using ^14C-labeled substrate, or by utilizing the production of hydrogen peroxide in a horseradish peroxidase (HRP) coupled reaction. Briefly, test compounds were dissolved in dimethyl sulfoxide (DMSO) to a concentration of 10 mM. Dose-response measurements were assayed by either creating 1:10 serial dilutions in DMSO to produce a 7 point curve or by making 1:3 serial dilutions in DMSO to produce 11 point curves. The top concentrations were adjusted depending on the potency of the compounds and subsequent dilution in reaction buffer yielded a final DMSO concentration ≦2%.
In a horseradish peroxidase (HRP) coupled reaction, hydrogen peroxide oxidation of 10-acetyl-3,7-dihydroxyphenoxazine produced resorufin, which is a highly fluorescent compound (Zhout and Panchuk-Voloshina. Analytical Biochemistry 253 (1997) 169-174; Amplex® Red Hydrogen Peroxide/peroxidase Assay kit, Invitrogen A22188). Enzyme and compounds in 50 mM sodium phosphate, pH 7.4 were set to pre-incubate in flat-bottomed microtiter plates for approximately 15 minutes before initiating the reaction by addition of a mixture of HRP, benzylamine and Amplex reagent. Benzylamine concentration was fixed at a concentration corresponding to the Michaelis constant, determined using standard procedures. Fluorescence intensity was then measured at several time points during 1-2 hours, exciting at 544 nm and reading the emission at 590 nm. For the human SSAO assay final concentrations of the reagents in the assay wells were: SSAO enzyme 1 μg/ml, benzylamine 100 μM, Amplex reagent 20 μM, HRP 0.1 U/mL and varying concentrations of test compound. The inhibition was measured as % decrease of the signal compared to a control without inhibitor (only diluted DMSO). The background signal from a sample containing no SSAO enzyme was subtracted from all data points. Data was fitted to a four parameter logistic model and IC50 values were calculated using the GraphPad Prism 4 or XLfit 4 programs.
SSAO activity was assayed using 14C-labeled benzylamine and analysed by measuring radioactive benzaldehyde. In a white 96-well optiplate (Packard), 20 μL of diluted test compound was pre-incubated at RT. with 20 μL SSAO enzyme for approximately 15 minutes with continuous agitation. All dilutions were made with PBS. The reaction was initiated by adding 20 μL of the benzylamine substrate solution containing [7-14C] Benzylamine hydrochloride (CFA589, GE Healthcare). The plate was incubated for 1 hour as above after which the reaction was stopped by acidification (10 μL 1 M HCl). Then 90 μL Micro Scint-E solution (Perkin-Elmer) was added to each well and the plate was continuously mixed for 15 minutes. Phase separation occurred instantly and activity was read in a Topcount scintillation counter (Perkin-Elmer). In the final reaction well, the human recombinant SSAO concentration was 10 μg/ml. In order to optimize sensitivity, the substrate concentration was decreased as compared to the HRP coupled assay in order to get a higher fraction of radioactive product. In the human SSAO assay, benzylamine concentration was 40 μM (0.2 μCi/mL). Data was analysed as above.

| IC50 | Structure (SMILES) |
| --- | --- |
| < 100 nM | NCCN1CCC(c2cn(-c3ccc(Cl)cc3)c3cnccc23)CC1 [Example 1, 2,2,2-Trifluoroacetic acid; 2-{4-[1-(4-chlorophenyl)-1H-pyrrolo[2,3-c]pyridin-3-yl]piperidin-1-yl}ethan-1-amine] |
| < 100 nM | NCCCOC(=O)N1CCC(c2cn(-c3ccc(Cl)cc3)c3cnccc23)CC1 [Example 2, 3-Aminopropyl 4-[1-(4-chlorophenyl)-1H-pyrrolo[2,3-c]pyridin-3-yl]piperidine-1-carboxylate] |
| < 100 nM | O=C(N1CCNCC1)N1CCC(c2cn(-c3ccc(Cl)cc3)c3cnccc23)CC1 [Example 8, 1-({4-[1-(4-Chlorophenyl)-1H-pyrrolo[2,3-c]pyridin-3-yl]piperidin-1-yl}carbonyl)piperazine] |
| 100 to 500 nM | O=C(N1CCOCC1)N1CCC(c2cn(-c3ccc(Cl)cc3)c3cnccc23)CC1 [Example 9, 4-({4-[1-(4-Chlorophenyl)-1H-pyrrolo[2,3-c]pyridin-3-yl]piperidin-1-yl}carbonyl)morpholine] |
| 100 to 500 nM | O=C(O)C1CCN(c2nn(-c3ccc(Cl)cc3)c3cnccc23)CC1 [Example 13, 1-[1-(4-Chlorophenyl)-1H-pyrazolo[3,4-c]pyridin-3-yl]piperidine-4-carboxylic acid hydrochloride] |
| 100 to 500 nM | NCCNC(=O)C1CCN(c2nn(-c3ccc(Cl)cc3)c3cnccc23)CC1 [Example 14, N-(2-Aminoethyl)-1-[1-(4-chlorophenyl)-1H-pyrazolo[3,4-c]pyridin-3-yl]piperidine-4-carboxamide dihydrochloride] |
| 500 to 2500 nM | O=C(C1CCN(c2nn(-c3ccc(Cl)cc3)c3cnccc23)CC1)N1CCOCC1 [Example 15, 4-({1-[1-(4-Chlorophenyl)-1H-pyrazolo[3,4-c]pyridin-3-yl]piperidin-4-yl}carbonyl) morpholine] |
| < 100 nM | OC[C@@H]1COCCN1c1nn(-c2ccc(Cl)cc2)c2cnccc12 [Example 19, [(3R)-4-[1-(4-Chlorophenyl)-1H-pyrazolo[3,4-c]pyridin-3-yl]morpholin-3-yl]methanol] |
| < 100 nM | NCCNC(=O)C1COCCN1c1nn(-c2ccc(Cl)cc2)c2cnccc12 (stereo not drawn) [Example 21, N-(2-Aminoethyl)-4-[1-(4-chlorophenyl)-1H-pyrazolo[3,4-c]pyridin-3-yl]morpholine-3-carboxamide] |
| < 100 nM | OCCC1COCCN1c1nn(-c2ccc(Cl)cc2)c2cnccc12 (stereo not drawn) [Example 22, 2-{4-[1-(4-Chlorophenyl)-1H-pyrazolo[3,4-c]pyridin-3-yl]morpholin-3-yl}ethan-1-ol] |
| 500 to 2500 nM | COC(=O)C1CCCCN1c1nn(-c2ccc(Cl)cc2)c2cnccc12 (stereo not drawn) [Example 23, Methyl 1-[1-(4-chlorophenyl)-1H-pyrazolo[3,4-c]pyridin-3-yl]piperidine-2-carboxylate] |
| < 100 nM | NCCNC(=O)C1CCCCN1c1nn(-c2ccc(Cl)cc2)c2cnccc12 (stereo not drawn) [Example 24, N-(2-Aminoethyl)-1-[1-(4-chlorophenyl)-1H-pyrazolo[3,4-c]pyridin-3-yl]piperidine-2-carboxamide dihydrochloride] |
| < 100 nM | O=C(C1CCCCN1c1nn(-c2ccc(Cl)cc2)c2cnccc12)N1CCNCC1 (stereo not drawn) [Example 25, 1-({1-[1-(4-Chlorophenyl)-1H-pyrazolo[3,4-c]pyridin-3-yl]piperidin-2-yl}carbonyl) piperazine] |

Continued, compound first:

| Structure (SMILES) | IC50 |
| --- | --- |
| CN(C)CCCC(=O)N1CCC(c2cn(-c3ccc(Cl)cc3)c3cnccc23)CC1 [Example 3, 1-{4-[1-(4-Chlorophenyl)-1H-pyrrolo[2,3-c]pyridin-3-yl]piperidin-1-yl}-4-(dimethylamino)butan-1-one; 2,2,2-trifluoroacetic acid] | < 100 nM |
| NCCCCC(=O)N1CCC(c2cn(-c3ccc(Cl)cc3)c3cnccc23)CC1 [Example 4, 5-Amino-1-{4-[1-(4-chlorophenyl)-1H-pyrrolo[2,3-c]pyridin-3-yl]piperidin-1-yl}pentan-1-one] | < 100 nM |
| NCCNC(=O)N1CCC(c2cn(-c3ccc(Cl)cc3)c3cnccc23)CC1 [Example 5, N-(2-Aminoethyl)-4-[1-(4-chlorophenyl)-1H-pyrrolo[2,3-c]pyridin-3-yl]piperidine-1-carboxamide] | < 100 nM |
| NCCCNC(=O)N1CCC(c2cn(-c3ccc(Cl)cc3)c3cnccc23)CC1 [Example 6, N-(3-Aminopropyl)-4-[1-(4-chlorophenyl)-1H-pyrrolo[2,3-c]pyridin-3-yl]piperidine-1-carboxamide] | < 100 nM |
| CN(C)CCCNC(=O)N1CCC(c2cn(-c3ccc(Cl)cc3)c3cnccc23)CC1 [Example 7, 4-[1-(4-Chlorophenyl)-1H-pyrrolo[2,3-c]pyridin-3-yl]-N-[3-(dimethylamino)propyl]piperidine-1-carboxamide] | < 100 nM |
| O=C(N1CCCNCC1)N1CCC(c2cn(-c3ccc(Cl)cc3)c3cnccc23)CC1 [Example 10, 1-({4-[1-(4-Chlorophenyl)-1H-pyrrolo[2,3-c]pyridin-3-yl]piperidin-1-yl}carbonyl)-1,4-diazepane] | < 100 nM |
| CCOC(=O)C1CCN(c2nn(-c3ccc(Cl)cc3)c3cnccc23)CC1 [Example 11, Ethyl 1-[1-(4-chlorophenyl)-1H-pyrazolo[3,4-c]pyridin-3-yl]piperidine-4-carboxylate] | 500 to 2500 nM |
| CCOC(=O)C1CCN(c2nn(-c3ccc(C)cc3)c3cnccc23)CC1 [Example 12, Ethyl 1-[1-(4-methylphenyl)-1H-pyrazolo[3,4-c]pyridin-3-yl]piperidine-4-carboxylate] | 100 to 500 nM |
| O=C(C1CCN(c2nn(-c3ccc(Cl)cc3)c3cnccc23)CC1)N1CCNCC1 [Example 16, 1-({1-[1-(4-Chlorophenyl)-1H-pyrazolo[3,4-c]pyridin-3-yl]piperidin-4-yl}carbonyl)piperazine dihydrochloride] | 100 to 500 nM |
| Cc1ccc(-n2nc(N3CCOCC3CO)c3ccncc32)cc1 (stereo not drawn) [Example 17, {4-[1-(4-Methylphenyl)-1H-pyrazolo[3,4-c]pyridin-3-yl]morpholin-3-yl}methanol] | < 100 nM |
| Cc1ccc(-n2nc(N3CCOC(CO)C3)c3ccncc32)cc1 (stereo not drawn) [Example 18, {4-[1-(4-Methylphenyl)-1H-pyrazolo[3,4-c]pyridin-3-yl]morpholin-2-yl}methanol] | < 100 nM |
| COC(=O)C1COCCN1c1nn(-c2ccc(Cl)cc2)c2cnccc12 (stereo not drawn) [Example 20, Methyl 4-[1-(4-chlorophenyl)-1H-pyrazolo[3,4-c]pyridin-3-yl]morpholine-3-carboxylate] | 100 to 500 nM |
| Cc1ccc(-n2cc(N3CCOCC3)c3ccncc32)cc1 [Example 26, 4-[1-(4-Methylphenyl)-1H-pyrrolo[2,3-c]pyridin-3-yl]morpholine] | 100 to 500 nM |
| Oc1cncc2c1c(C1CCNCC1)cn2-c1ccc(Cl)cc1 [Example 27, 1-(4-Chlorophenyl)-3-(piperidin-4-yl)-1H-pyrrolo[2,3-c]pyridin-4-ol] | < 100 nM |
